Converted amounts (≈) assume the structure as drawn.
settings: buffer; pH 7.4; 200.0 µM

Question: With `Cc1ccccc1C(=O)NC(C)C1CC2CCC1C2` (stereo not given) as the compound, how does the solubility kinetic read?
Answer: Its solubility kinetic is 28.5 µg/mL (≈ 111 µM).

Question: Which solubility kinetic does the source give for `CSc1ncccc1C(=O)N1CCN(C(=O)c2ccccc2)CC1` here?
Answer: The solubility kinetic was > 51.2 µg/mL.

Question: For `COc1ccc(CNC(=O)c2cc(=O)c3c(C)cc(C)cc3o2)cc1`, which solubility kinetic is on record?
Answer: Its solubility kinetic is < 0.7 µg/mL.

Question: Which solubility kinetic does the source give for `CCOCCn1c(N2CCCC2)nc2c1c(=O)[nH]c(=O)n2C` here?
Answer: Its solubility kinetic is 45.2 µg/mL (≈ 147 µM).

Question: With `COC(=O)CNC(=O)COC(=O)/C=C/c1ccccc1[N+](=O)[O-]` as the compound, how does the solubility kinetic read?
Answer: Its solubility kinetic is 41.3 µg/mL (≈ 128 µM).

Question: For `O=C(COc1ccccc1)N1CCN=C1SCc1cccc(F)c1`, which solubility kinetic is on record?
Answer: The solubility kinetic was 3.4 µg/mL (≈ 9.87 µM).

Question: For `COc1ccc(NS(=O)(=O)c2ccc3[nH]c(=O)[nH]c3c2)cc1OC`, which solubility kinetic is on record?
Answer: Its solubility kinetic is > 52.4 µg/mL.

Question: With `CCN(CC(=O)Nc1c(F)cccc1F)C(=O)CSc1ccc(F)cc1` as the compound, how does the solubility kinetic read?
Answer: The solubility kinetic was > 57.4 µg/mL.

Question: With `NC(=O)C1CCN(CC(O)COCc2ccccc2Cl)CC1` (stereo not given) as the compound, how does the solubility kinetic read?
Answer: Its solubility kinetic is > 49 µg/mL.

Question: For `O=C(NC1CC1)C1CCCN(C(=O)NC2CCCCC2)C1` (stereo not given), which solubility kinetic is on record?
Answer: Its solubility kinetic is > 44 µg/mL.

Question: With `Cc1cc(C)c(NC(=O)CNC(=O)c2ccc3ncsc3c2)c(C)c1` as the compound, how does the solubility kinetic read?
Answer: The solubility kinetic was 6.7 µg/mL (≈ 19 µM).

Question: With `O=C1c2ccccc2-c2ccc(C(=O)N3CCCCC3)cc21` as the compound, how does the solubility kinetic read?
Answer: Its solubility kinetic is 19 µg/mL (≈ 65.2 µM).

Question: For `CCSc1nsc(NC(=O)Nc2ccc(F)cc2F)n1`, which solubility kinetic is on record?
Answer: Its solubility kinetic is 1.7 µg/mL (≈ 5.37 µM).

Question: For `Cc1cc(C(=O)COC(=O)c2ccc(F)cc2)c(C)n1C`, which solubility kinetic is on record?
Answer: Its solubility kinetic is 1.2 µg/mL (≈ 4.15 µM).

Question: Which solubility kinetic does the source give for `COC(=O)c1sccc1NC(=O)Nc1ccc(F)cc1` here?
Answer: The solubility kinetic was 28.4 µg/mL (≈ 96.5 µM).

Question: Which solubility kinetic does the source give for `CC(=O)NC(Cc1ccccc1)Cc1ccccc1` here?
Answer: Its solubility kinetic is > 38 µg/mL.

Question: Which solubility kinetic does the source give for `Cc1nc(NC(=O)CSc2nnc(C3CC3)n2N)c(Cl)cc1Cl` here?
Answer: Its solubility kinetic is > 56 µg/mL.

Question: For `CCN1C(=O)C(=O)N(CC(=O)N(C)CC(=O)Nc2ccccc2C(F)(F)F)C1=O`, which solubility kinetic is on record?
Answer: The solubility kinetic was > 62.1 µg/mL.

Question: For `COc1ccc(NS(=O)(=O)c2cc(N)ccc2N2CCCC2)cc1`, which solubility kinetic is on record?
Answer: Its solubility kinetic is 47.6 µg/mL (≈ 137 µM).

Question: With `COc1ccccc1NC(=S)NCc1ccc(Cl)cc1` as the compound, how does the solubility kinetic read?
Answer: The solubility kinetic was 33 µg/mL (≈ 108 µM).

Question: Which solubility kinetic does the source give for `O=[N+]([O-])c1cccc(/C=C/c2ccncc2)c1` here?
Answer: The solubility kinetic was 11.9 µg/mL (≈ 52.6 µM).

Question: With `Cc1cc(C)n2nc(SCC(=O)N3CCC(C)CC3)nc2n1` as the compound, how does the solubility kinetic read?
Answer: The solubility kinetic was > 47.9 µg/mL.

Question: Which solubility kinetic does the source give for `Cc1cccc(NC(=O)C(c2ccccc2Cl)N2CCOCC2)c1` (stereo not given) here?
Answer: The solubility kinetic was 48.9 µg/mL (≈ 142 µM).

Question: With `CC1CN(C(=O)c2cccc(Oc3ccccc3)c2)CC(C)O1` (stereo not given) as the compound, how does the solubility kinetic read?
Answer: The solubility kinetic was > 46.7 µg/mL.

Question: With `Cl.O=C(/C=C/c1ccco1)OCC1CCCN2CCCCC12` (stereo not given) as the compound, how does the solubility kinetic read?
Answer: Its solubility kinetic is > 48.9 µg/mL.

Question: Which solubility kinetic does the source give for `CN(C)S(=O)(=O)c1ccc(C(=O)NC(=O)CSc2nncs2)cc1` here?
Answer: The solubility kinetic was > 58 µg/mL.

Question: Which solubility kinetic does the source give for `Cc1onc(-c2ccccc2)c1C(=O)N1CCCCCC1` here?
Answer: Its solubility kinetic is > 42.7 µg/mL.

Question: For `CC(NC(=O)COC(=O)C12CC3CC(CC(Br)(C3)C1)C2)c1ccccc1` (stereo not given), which solubility kinetic is on record?
Answer: The solubility kinetic was 20.6 µg/mL (≈ 49 µM).

Question: For `Cc1ccc(C(=O)N(CC(C)C)c2nc3ccccc3s2)o1`, which solubility kinetic is on record?
Answer: The solubility kinetic was 0.5 µg/mL (≈ 1.59 µM).

Question: For `COC(=O)c1cc(S(=O)(=O)N(C)C2CCCCC2)c[nH]1`, which solubility kinetic is on record?
Answer: The solubility kinetic was > 45.1 µg/mL.

Question: With `O=C(O)CCCNC(=O)/C=C/c1ccco1` as the compound, how does the solubility kinetic read?
Answer: The solubility kinetic was 26.5 µg/mL (≈ 119 µM).

Question: Which solubility kinetic does the source give for `COc1ccc(/C=N/NC(N)=S)cc1` here?
Answer: Its solubility kinetic is > 31.4 µg/mL.

Question: With `COc1ccc(CC(=O)OCC(=O)NCc2ccc(C)cc2)cc1OC` as the compound, how does the solubility kinetic read?
Answer: Its solubility kinetic is > 53.6 µg/mL.

Question: With `C=CCNC(=S)N1CCN(S(=O)(=O)c2ccc(C)cc2)CC1` as the compound, how does the solubility kinetic read?
Answer: Its solubility kinetic is > 50.9 µg/mL.

Question: With `O=C(NCCCc1nc2ccccc2[nH]1)c1ccco1` as the compound, how does the solubility kinetic read?
Answer: The solubility kinetic was > 40.4 µg/mL.

Question: Which solubility kinetic does the source give for `Fc1cccc(NC(=S)N2CCn3cccc3C2c2cccnc2)c1` (stereo not given) here?
Answer: The solubility kinetic was 51.9 µg/mL (≈ 147 µM).

Question: For `Cc1cccc(C)c1NC(=O)C(C)N1CCCC1` (stereo not given), which solubility kinetic is on record?
Answer: Its solubility kinetic is > 37 µg/mL.

Question: Which solubility kinetic does the source give for `CC(C)(C#N)NC(=O)C(=O)c1c(-c2ccccc2)cc2ccccn12` here?
Answer: Its solubility kinetic is > 49.7 µg/mL.

Question: Which solubility kinetic does the source give for `CCOc1cc(OCC)cc(C(=O)NCCCN2CCOCC2)c1` here?
Answer: Its solubility kinetic is 48.4 µg/mL (≈ 144 µM).

Question: For `N#Cc1nc(-c2ccccc2)oc1N1CCC(C(N)=O)CC1`, which solubility kinetic is on record?
Answer: Its solubility kinetic is 39.7 µg/mL (≈ 134 µM).

Question: Which solubility kinetic does the source give for `CC(C)Cn1c(=S)[nH]c2cc(Cl)ccc21` here?
Answer: Its solubility kinetic is 18.5 µg/mL (≈ 76.8 µM).

Question: With `CC(C)CCn1c(N2CCCC2)nc2c1c(=O)[nH]c(=O)n2C` as the compound, how does the solubility kinetic read?
Answer: The solubility kinetic was > 45.8 µg/mL.

Question: With `Cc1ccc(C2=NOC(=O)/C2=C\c2ccccc2)cc1` as the compound, how does the solubility kinetic read?
Answer: The solubility kinetic was 33.7 µg/mL (≈ 128 µM).

Question: Which solubility kinetic does the source give for `Cc1ccc(C(=O)OCC(=O)NCc2ccc(F)cc2)o1` here?
Answer: Its solubility kinetic is > 43.7 µg/mL.

Question: For `Cc1nn(CC(=O)NCCC2=CCCCC2)c(C)c1S(=O)(=O)N(C)C`, which solubility kinetic is on record?
Answer: The solubility kinetic was > 55.3 µg/mL.

Question: With `O=C(Nc1ccc(F)cc1)c1cc2ccccc2o1` as the compound, how does the solubility kinetic read?
Answer: The solubility kinetic was 1.9 µg/mL (≈ 7.44 µM).

Question: With `COc1ccc(N2CCN(C(=O)CN3C(=O)NC4(CCCCC4C)C3=O)CC2)cc1` (stereo not given) as the compound, how does the solubility kinetic read?
Answer: Its solubility kinetic is > 62.2 µg/mL.

Question: With `O=C(Nc1ccc(N2CCCCC2)cc1)c1ccc([N+](=O)[O-])o1` as the compound, how does the solubility kinetic read?
Answer: Its solubility kinetic is 6.9 µg/mL (≈ 21.9 µM).

Question: With `O=C(OCC(=O)N1CCOCC1)c1ccc(F)cc1Cl` as the compound, how does the solubility kinetic read?
Answer: Its solubility kinetic is > 45.3 µg/mL.

Question: For `Br.Cn1c(=N)n(CC(=O)c2ccc(F)cc2)c2ccccc21`, which solubility kinetic is on record?
Answer: The solubility kinetic was > 54.6 µg/mL.

Question: With `O=c1[nH]n2cc(-n3cc([N+](=O)[O-])cn3)cnc2c1Br` as the compound, how does the solubility kinetic read?
Answer: Its solubility kinetic is > 48.8 µg/mL.

Question: With `CCCCNc1ccc2c3c(cccc13)C(=O)N(CCCC)C2=O` as the compound, how does the solubility kinetic read?
Answer: The solubility kinetic was 2.1 µg/mL (≈ 6.47 µM).

Question: With `O/N=C/c1cc(Br)cs1` as the compound, how does the solubility kinetic read?
Answer: Its solubility kinetic is 16.9 µg/mL (≈ 82 µM).

Question: For `CN1CCC(N(C)c2ccc(C(N)=O)cc2[N+](=O)[O-])CC1`, which solubility kinetic is on record?
Answer: Its solubility kinetic is 40.1 µg/mL (≈ 137 µM).

Question: For `CSc1nc2c(c(=O)[nH]c(=O)n2C)n1Cc1ccccc1`, which solubility kinetic is on record?
Answer: Its solubility kinetic is > 45.4 µg/mL.

Question: Which solubility kinetic does the source give for `O=C(CSc1nc2c(c(=O)[nH]1)CCC2)Nc1ccc(F)cc1` here?
Answer: Its solubility kinetic is 10.7 µg/mL (≈ 33.5 µM).

Question: With `Cc1cc(NC(=O)c2cccc(C)c2[N+](=O)[O-])no1` as the compound, how does the solubility kinetic read?
Answer: Its solubility kinetic is < 0.2 µg/mL.

Question: For `CN1C(=O)c2cccc3c(S(=O)(=O)N4CCCC4C(=O)O)ccc1c23` (stereo not given), which solubility kinetic is on record?
Answer: The solubility kinetic was > 54.1 µg/mL.

Question: For `O=C(O)c1cc(=O)n(Cc2ccccc2)c(=O)[nH]1`, which solubility kinetic is on record?
Answer: Its solubility kinetic is > 36.9 µg/mL.

Question: For `O=C(OCC(=O)N1CCOCC1)c1ccc(O)cc1`, which solubility kinetic is on record?
Answer: Its solubility kinetic is 31 µg/mL (≈ 117 µM).

Reference: PubChem BioAssay AID1996
